# In PMC6661729, “In silico design and synthesis of hesperitin derivatives as new xanthine oxidase inhibitors” (BMC Chemistry, 2019):
# Experiments:
# [1] = Hydrogen peroxide scavenging (H2O2) assay; details: phosphate buffer pH 7.4, 230 nm, 10 min; L-ascorbic acid standard; read-out: IC50 ± SEM (hydrogen peroxide assay)
# Protocol: To compare and best evaluate the antioxidant potential of newly synthesized hesperitin derivatives, hydrogen peroxide assay was performed by the method described by Patel et al. with some modifications. The solution of H2O2 (100 mM) was prepared via the adding up different concentrations of synthesized derivatives ranging from 5 to 80 μg/mL to H2O2 solution (2 mL), prepared in 20 mM phosphate buffer of pH 7.4. Finally, the absorbance of H2O2 was measured at 230 nm after incubating for 10 min next to a blank reading of phosphate buffer without H2O2. For every measurement, a fresh reading of blank was taken to carry out background correction. For control sample containing H2O2 was scanned for absorbance at 230 nm. Results calculated as percentage of hydrogen peroxide inhibition was estimated by the formula [(Ab − At)/[…]] × 100, where Ab is the absorbance of the control and At is the absorbance of compounds/standard taken as L-ascorbic acid (5–80 μg/mL) are shown in Table 3.
# [2] = Antioxidant activity by DPPH method; details: methanol, 37 °C, 517 nm; ascorbic acid positive control; read-out: IC50 ± SEM (DPPH assay)
# Protocol: The antioxidant potential of hesperitin derivatives was performed by DPPH method evaluated in the form of IC50 estimated using the ELISA plate reader EPOCH™ “MICROPLATE READER (BIOTEK)”. This method opted for evaluation of free radical scavenging activity of DPPH was base on modified procedure described by Dhiman et al.. The tested compounds were prepared in methanolic solution and reacted with methanolic solution of DPPH at 37 °C. The reaction mixture was prepared in 96-well plate by adding 50 µL of sample, 50 µL […] of methanol and 50 µL of DPPH solution prepared in 0.1 mM in methanol. The mechanism of action of DPPH assay was based on the fact that DPPH radical get reduced during its reaction with an antioxidant compound and results in changes of color (from deep violet to light yellow). The absorbance was read at 517 nm for 30 min at an interval of 5 min of using ELISA microplate reader. The mixture of methanol (5.0 mL) and tested compounds (0.2 mL) serve as blank. Ascorbic acid served as positive control.
# human xanthine oxidase = molecular target: T1, human xanthine oxidase (Homo sapiens, UniProt P47989); assay: In vitro xanthine oxidase inhibitory activity (XO activity assay kit, H2O2 read at 570 nm); type: biochemical; details: 25 °C, xanthine substrate, allopurinol positive control; read-out: IC50 xanthine oxidase inhibition
# T1 construct: purchased Sigma (sigma-aldrich.co, USA) MAK078
# T1 sequence (P47989 whole entry): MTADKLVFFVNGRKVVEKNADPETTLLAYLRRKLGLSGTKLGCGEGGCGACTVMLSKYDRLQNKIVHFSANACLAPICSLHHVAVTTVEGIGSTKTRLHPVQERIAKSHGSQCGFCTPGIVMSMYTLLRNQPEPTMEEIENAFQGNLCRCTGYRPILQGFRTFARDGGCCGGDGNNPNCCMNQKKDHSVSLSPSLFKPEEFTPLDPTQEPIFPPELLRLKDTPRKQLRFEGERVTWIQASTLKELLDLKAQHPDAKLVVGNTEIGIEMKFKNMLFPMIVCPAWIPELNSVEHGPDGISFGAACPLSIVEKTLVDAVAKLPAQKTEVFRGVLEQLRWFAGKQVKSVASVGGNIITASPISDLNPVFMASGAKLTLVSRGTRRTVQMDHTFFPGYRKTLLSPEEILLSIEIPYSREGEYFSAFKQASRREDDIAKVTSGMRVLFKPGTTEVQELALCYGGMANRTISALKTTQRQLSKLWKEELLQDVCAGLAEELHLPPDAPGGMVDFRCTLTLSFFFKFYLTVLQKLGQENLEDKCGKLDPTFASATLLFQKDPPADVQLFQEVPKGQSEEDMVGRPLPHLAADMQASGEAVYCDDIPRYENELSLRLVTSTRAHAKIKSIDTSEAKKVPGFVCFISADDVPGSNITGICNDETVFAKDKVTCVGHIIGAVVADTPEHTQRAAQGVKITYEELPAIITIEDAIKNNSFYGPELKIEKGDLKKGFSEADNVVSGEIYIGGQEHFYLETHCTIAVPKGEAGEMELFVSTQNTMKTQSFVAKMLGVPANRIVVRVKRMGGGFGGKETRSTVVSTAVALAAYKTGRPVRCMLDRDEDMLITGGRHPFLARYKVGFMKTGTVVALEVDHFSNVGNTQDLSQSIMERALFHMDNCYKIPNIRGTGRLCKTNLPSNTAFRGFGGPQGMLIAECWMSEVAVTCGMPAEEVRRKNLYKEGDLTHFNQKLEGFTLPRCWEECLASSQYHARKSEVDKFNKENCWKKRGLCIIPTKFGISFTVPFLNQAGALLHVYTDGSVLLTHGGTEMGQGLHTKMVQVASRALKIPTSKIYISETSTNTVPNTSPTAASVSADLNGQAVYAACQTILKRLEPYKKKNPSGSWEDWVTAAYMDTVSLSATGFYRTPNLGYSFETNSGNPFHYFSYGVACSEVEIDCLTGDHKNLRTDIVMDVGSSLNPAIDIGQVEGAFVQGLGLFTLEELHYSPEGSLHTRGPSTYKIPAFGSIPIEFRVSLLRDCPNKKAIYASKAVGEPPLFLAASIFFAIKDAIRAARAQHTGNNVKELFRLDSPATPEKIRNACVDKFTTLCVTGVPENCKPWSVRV
# Protocol: For this research, the analytical grade chemicals necessary for synthesis and antioxidant activity were purchased from Hi-media Laboratories. The in vitro evaluation of the human xanthine oxidase inhibitory activity was performed by measuring hydrogen peroxide (H2O2) production from oxidation of […], utilizing the human xanthine oxidase assay kit (Sigma USA). The progress of reaction was observed through thin layer chromatography (TLC) on 0.25 mm precoated silica gel plates purchased from Merck, reaction spots were envisaged in iodine compartment and UV. Melting points were measured using a Sonar melting point apparatus and uncorrected. ^1H NMR and ^13C NMR spectra were documented in DMSO and deuterated CDCl3 respectively on Bruker Avance II 400 NMR spectrometer at the frequency of 400 MHz using tetramethylsilane standard (downfield) moreover chemical shifts were expressed in ppm (δ) using the residual solvent line as internal standard. Infrared (IR) spectra were recorded on Perkin Elmer FTIR spectrophotometer by utilizing KBr pellets system.
# The method opted to evaluate the inhibitory potential of hesperitin derivatives was a modified protocol of Sigma, done by UV-spectrophotometric method by using xanthine oxidase activity assay kit purchased from sigma (MAK078, sigma-aldrich.co, USA). The colorimetric product obtained in the form of hydrogen peroxide generated during the oxidation of XO was determined by a coupled enzyme technique, measured at 570 nm in a 96-well plate, using the plate reader EPOCH™ “MICROPLATE READER (BIOTEK)”. One unit of XO is defined as the amount of enzyme that catalyzes the oxidation of xanthine substrate, yielding 1.0 µmol of uric acid and hydrogen peroxide per minute at 25 °C. Reagents used were 44 µL of xanthine oxidase assay buffer, 2 µL xanthine substrate solution and 2 µL of xanthine oxidase enzyme solution. All the solutions mentioned above were mixed to prepare reaction mixture. The different concentrations of synthesized derivatives having final volume 50 µL were prepared in dimethyl sulfoxide (DMSO) and added to 96 well plate. To each well 50 µL of reaction mix was added and mixed well. After 2–3 min initial measurement was taken. The plates were incubated at 25 °C taking measurements at every 5 min.
# xanthine oxidase = assay: Enzyme kinetic analysis for XO-inhibitory activity (Michaelis-Menten, Lineweaver-Burk); type: biochemical, human; details: without inhibitor 117.6
# Chain of xanthine oxidase (P47989 whole entry): as above
# Protocol: Firstly Michaelis–Menten curve was plotted for the enzyme activity at different concentrations of HET4 against different concentration of xanthine substrate (Fig. 6).
# Then double reciprocal plot (Lineweaver–Burk) analysis was done in the presence (0.25, 0.5, and 1.0 µM) and absence of HET4 from in vitro data generated during the oxidation of xanthine in presence of xanthine oxidase (Fig. 7). The x- and y-axis intercepts of the Lineweaver–Burk plot were utilized to calculate Km and Vmax values of HET4 at different concentrations (Table 2).
smiles,measurement,setting,value
COc1ccc([C@@H]2CC(=O)c3c(OC)cc(OC(=O)c4ccccc4S)cc3O2)cc1OC [HET2],IC50,[1],8.547 ± 0.06 µM
same,IC50,[2],6.71 ± 0.15 µM
same,IC50,human xanthine oxidase,23.2 ± 1.25 µM
COc1ccc([C@@H]2CC(=O)c3c(OC)cc(OC(=O)C(O)c4ccccc4)cc3O2)cc1OC (some centres unmarked) [HET3],IC50,[1],3.322 ± 0.01 µM
same,IC50,human xanthine oxidase,12.9 ± 0.72 µM
COc1ccc([C@@H]2CC(=O)c3c(OC)cc(OC(=O)/C=C/c4ccc(O)c(O)c4)cc3O2)cc1OC [HET4],IC50,[1],4.642 ± 0.03 µM
same,IC50,[2],1.633 ± 0.01 µM
same,IC50,human xanthine oxidase,9.09 µM
same,Vmax of xanthine oxidase,xanthine oxidase; Conc. of HET4 0.25 µM,116.4 µmol/min
same,Vmax of xanthine oxidase,xanthine oxidase; Conc. of HET4 0.5 µM,112.2 µmol/min
same,Vmax of xanthine oxidase,xanthine oxidase; Conc. of HET4 1.0 µM,103.7 µmol/min
COc1ccc([C@@H]2CC(=O)c3c(OC)cc(OC(=O)c4cccnc4)cc3O2)cc1OC [HET5],IC50,[1],6.37 ± 0.26 µM
same,IC50,[2],4.82 ± 0.06 µM
same,IC50,human xanthine oxidase,10.8 µM
COc1cc(C(=O)Oc2cc(OC)c3c(c2)O[C@H](c2ccc(OC)c(OC)c2)CC3=O)ccc1O [HET6],IC50,[1],7.51 ± 0.02 µM
same,IC50,[2],7.11 ± 0.13 µM
same,IC50,human xanthine oxidase,11.7 µM
COc1ccc([C@@H]2CC(=O)c3c(O)cc(O)cc3O2)cc1O [Hesperitin],IC50,[1],14.43 ± 0.14 µM
same,IC50,[2],12.9 ± 0.2 µM
same,IC50,human xanthine oxidase,29.25 ± 0.12 µM
